Laboratory results from PubChem BioAssay AID2060619 (Molecular Pharmacology Branch, DTP, NCI, 2025).
Values joined by “and” are separate entries in the source; they are usually repeats but may differ in a detail not shown here. Equal entries are not always repeated. Each block holds one molecule with its values, some of them ahead of it.

Test system: 323965-272-R-J2-PDC complex spheroid viability
Assay: Anticancer human tumor 323965-272-R-J2-PDC patient-derived pancreatic carcinoma cell line growth inhibition [CLK]
Settings: for viability, T/C: stronger effect = lower value
Summary of the method: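 Multi-cell-type spheroids combined patient-derived tumor cells with HUVEC endothelial cells and human mesenchymal stem cells. Paired agents were dosed in half-log steps down from about clinical Cmax, or from 10 microM where Cmax was unknown.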

[1] = curve of first compound, second compound 0.0316 µM
[2] = curve of first compound, second compound 0.1 µM
[3] = curve of first compound, second compound 0.316 µM
[4] = curve of first compound, second compound 1 µM
[5] = curve of first compound, second compound 3.16 µM
[6] = curve of first compound, second compound 10 µM
[7] = second compound 0.0316 µM, first compound 0.0316 µM
[8] = second compound 0.0316 µM, first compound 0.1 µM
[9] = second compound 0.0316 µM, first compound 0.316 µM
[10] = second compound 0.0316 µM, first compound 1 µM
[11] = second compound 0.0316 µM, first compound 3.16 µM
[12] = second compound 0.0316 µM, first compound 10 µM
[13] = second compound 0.1 µM, first compound 0.0316 µM
[14] = second compound 0.1 µM, first compound 0.1 µM
[15] = second compound 0.1 µM, first compound 0.316 µM
[16] = second compound 0.1 µM, first compound 1 µM
[17] = second compound 0.1 µM, first compound 3.16 µM
[18] = second compound 0.1 µM, first compound 10 µM
[19] = second compound 0.316 µM, first compound 0.0316 µM
[20] = second compound 0.316 µM, first compound 0.1 µM
[21] = second compound 0.316 µM, first compound 0.316 µM
[22] = second compound 0.316 µM, first compound 1 µM
[23] = second compound 0.316 µM, first compound 3.16 µM
[24] = second compound 0.316 µM, first compound 10 µM
[25] = second compound 1 µM, first compound 0.0316 µM
[26] = second compound 1 µM, first compound 0.1 µM
[27] = second compound 1 µM, first compound 0.316 µM
[28] = second compound 1 µM, first compound 1 µM
[29] = second compound 1 µM, first compound 3.16 µM
[30] = second compound 1 µM, first compound 10 µM
[31] = second compound 3.16 µM, first compound 0.0316 µM
[32] = second compound 3.16 µM, first compound 0.1 µM
[33] = second compound 3.16 µM, first compound 0.316 µM
[34] = second compound 3.16 µM, first compound 1 µM
[35] = second compound 3.16 µM, first compound 3.16 µM
[36] = second compound 3.16 µM, first compound 10 µM
[37] = second compound 10 µM, first compound 0.0316 µM
[38] = second compound 10 µM, first compound 0.1 µM
[39] = second compound 10 µM, first compound 0.316 µM
[40] = second compound 10 µM, first compound 1 µM
[41] = second compound 10 µM, first compound 3.16 µM
[42] = second compound 10 µM, first compound 10 µM
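Further: spheroids exposed to agents for seven days before readout.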
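Wherever viability, T/C is given: percent of DMSO vehicle control wells so 100% = untreated growth.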

SMILES: O=c1[nH]cc(F)c(=O)[nH]1 + CN1CCN(c2cc(C(=O)Nc3cc4cc(-c5cnn(C)c5)ccc4cn3)ccn2)CC1
IC50 [1]: 7400 nM
IC50 [2]: 3150 nM
IC50 [3]: < 31.6 nM
IC50 [4]: < 31.6 nM
IC50 [5]: < 31.6 nM
IC50 [6]: < 31.6 nM
viability, T/C [7]: 99.5%
viability, T/C [8]: 96.8%
viability, T/C [9]: 99.3%
viability, T/C [10]: 85.8%
viability, T/C [11]: 63%
viability, T/C [12]: 45.4%
viability, T/C [13]: 62.8%
viability, T/C [14]: 85.4%
viability, T/C [15]: 73.5%
viability, T/C [16]: 67.4%
viability, T/C [17]: 50.2%
viability, T/C [18]: 36.7%
viability, T/C [19]: 26.1%
viability, T/C [20]: 27%
viability, T/C [21]: 26.6%
viability, T/C [22]: 25.2%
viability, T/C [23]: 24.5%
viability, T/C [24]: 22.6%
viability, T/C [25]: 3.34%
viability, T/C [26]: 2.81%
viability, T/C [27]: 3.78%
viability, T/C [28]: 3.65%
viability, T/C [29]: 4.75%
viability, T/C [30]: 3.29%
viability, T/C [31]: 4.71%
viability, T/C [32]: 4.34%
viability, T/C [33]: 4.13%
viability, T/C [34]: 4.08%
viability, T/C [35]: 6.26%
viability, T/C [36]: 5.19%
viability, T/C [37]: 3.98%
viability, T/C [38]: 3.73%
viability, T/C [39]: 3.94%
viability, T/C [40]: 4.27%
viability, T/C [41]: 7.34%
viability, T/C [42]: 3.84%

IC50 [1]: 2200 nM
IC50 [2]: 1370 nM
IC50 [3]: 580 nM
IC50 [4]: < 31.6 nM
IC50 [5]: < 31.6 nM
IC50 [6]: 53.1 nM
SMILES: COC1C=CCC(C)C(C)S(=O)(=O)NC(=O)c2ccc3c(c2)N(CC2CCC21)CC1(CCCc2cc(Cl)ccc21)CO3 (stereo not drawn) + CNC(=O)c1ccc(Nc2nc(OC3CCCC3)c3c(-c4ccc5nc(C)oc5c4)c[nH]c3n2)c(OC)c1
viability, T/C [7]: 106%
viability, T/C [8]: 119%
viability, T/C [9]: 85.4%
viability, T/C [10]: 68.3%
viability, T/C [11]: 43.9%
viability, T/C [12]: 23.2%
viability, T/C [13]: 105%
viability, T/C [14]: 86.5%
viability, T/C [15]: 68.8%
viability, T/C [16]: 57.4%
viability, T/C [17]: 36.8%
viability, T/C [18]: 25.1%
viability, T/C [19]: 74.1%
viability, T/C [20]: 62%
viability, T/C [21]: 56.9%
viability, T/C [22]: 42.3%
viability, T/C [23]: 39.1%
viability, T/C [24]: 21.4%
viability, T/C [25]: 47.6%
viability, T/C [26]: 47.8%
viability, T/C [27]: 39.1%
viability, T/C [28]: 37.4%
viability, T/C [29]: 30.7%
viability, T/C [30]: 21.5%
viability, T/C [31]: 46.1%
viability, T/C [32]: 43.5%
viability, T/C [33]: 36.7%
viability, T/C [34]: 29.7%
viability, T/C [35]: 28.4%
viability, T/C [36]: 20.7%
viability, T/C [37]: 54.7%
viability, T/C [38]: 45.3%
viability, T/C [39]: 32.8%
viability, T/C [40]: 29.2%
viability, T/C [41]: 24.8%
viability, T/C [42]: 18.1%

IC50 (curve of compound): > 10000 nM
SMILES: O=C(c1cc(Cc2n[nH]c(=O)c3ccccc23)ccc1F)N1CCN(C(=O)C2CC2)CC1
viability, T/C (compound 0.0316 µM): 105% and 107%
viability, T/C (compound 0.1 µM): 103% and 102%
viability, T/C (compound 0.316 µM): 100% and 98.1%
viability, T/C (compound 1 µM): 103% and 90.2%
viability, T/C (compound 3.16 µM): 108% and 107%
viability, T/C (compound 10 µM): 84.3% and 81.5%

IC50 (curve of compound): > 1000 nM
SMILES: CCN1CCN(Cc2ccc(Nc3ncc(F)c(-c4cc(F)c5nc(C)n(C(C)C)c5c4)n3)nc2)CC1
viability, T/C (compound 0.00316 µM): 91.3% and 105%
viability, T/C (compound 0.01 µM): 95.6% and 95%
viability, T/C (compound 0.0316 µM): 81.2% and 68.3%
viability, T/C (compound 0.1 µM): 67.5% and 69.9%
viability, T/C (compound 0.316 µM): 73.3% and 68.3%
viability, T/C (compound 1 µM): 72.3% and 68.7%

IC50 (curve of compound): 1690 nM and 1060 nM
SMILES: NC(=O)C(=Cn1cnc(-c2cc(C(F)(F)F)cc(C(F)(F)F)c2)n1)c1cncnc1
viability, T/C (compound 0.00949 µM): 97.4% and 105%
viability, T/C (compound 0.03 µM): 109% and 91.9%
viability, T/C (compound 0.0949 µM): 74.2% and 75.9%
viability, T/C (compound 0.3 µM): 64.3% and 66.8%
viability, T/C (compound 0.949 µM): 69.2% and 61.7%
viability, T/C (compound 3 µM): 38.3% and 28.5%

IC50 [1]: 7910 nM
IC50 [2]: 31.6 nM
IC50 [3]: < 31.6 nM
IC50 [4]: < 31.6 nM
IC50 [5]: < 31.6 nM
IC50 [6]: < 31.6 nM
SMILES: C=C(F)C(=O)N1CCN(c2nc(OCC3CCCN3C)nc3c2CCN(c2cccc4cccc(Cl)c24)C3)CC1CC#N (stereo not drawn) + CNC(=O)c1ccc(Nc2nc(OC3CCCC3)c3c(-c4ccc5nc(C)oc5c4)c[nH]c3n2)c(OC)c1
viability, T/C [7]: 69.7%
viability, T/C [8]: 49.6%
viability, T/C [9]: 52.8%
viability, T/C [10]: 78%
viability, T/C [11]: 85.2%
viability, T/C [12]: 17.7%
viability, T/C [13]: 47.7%
viability, T/C [14]: 40.4%
viability, T/C [15]: 39.6%
viability, T/C [16]: 48.5%
viability, T/C [17]: 64%
viability, T/C [18]: 9.35%
viability, T/C [19]: 36.1%
viability, T/C [20]: 28.4%
viability, T/C [21]: 32.9%
viability, T/C [22]: 33.4%
viability, T/C [23]: 45.2%
viability, T/C [24]: 1.42%
viability, T/C [25]: 25.8%
viability, T/C [26]: 22%
viability, T/C [27]: 25.6%
viability, T/C [28]: 27.8%
viability, T/C [29]: 31%
viability, T/C [30]: 0.63%
viability, T/C [31]: 26.2%
viability, T/C [32]: 20.6%
viability, T/C [33]: 22.1%
viability, T/C [34]: 23.6%
viability, T/C [35]: 28.9%
viability, T/C [36]: 0.56%
viability, T/C [37]: 23.2%
viability, T/C [38]: 20.8%
viability, T/C [39]: 21.2%
viability, T/C [40]: 28.3%
viability, T/C [41]: 24.8%
viability, T/C [42]: 0.31%

SMILES: COc1ccc([C@@H](O)c2cc(-c3ncnc4cc(N5CCOCC5)ccc34)c(F)cc2Cl)nn1 + CN1CCN(c2cc(C(=O)Nc3cc4cc(-c5cnn(C)c5)ccc4cn3)ccn2)CC1
IC50 [1]: 7780 nM
IC50 [2]: 3340 nM
IC50 [3]: < 31.6 nM
IC50 [4]: < 31.6 nM
IC50 [5]: < 31.6 nM
IC50 [6]: < 31.6 nM
viability, T/C [7]: 94.2%
viability, T/C [8]: 100%
viability, T/C [9]: 84%
viability, T/C [10]: 89.7%
viability, T/C [11]: 68.8%
viability, T/C [12]: 44.5%
viability, T/C [13]: 70.5%
viability, T/C [14]: 80.3%
viability, T/C [15]: 62.9%
viability, T/C [16]: 61.8%
viability, T/C [17]: 51%
viability, T/C [18]: 37.8%
viability, T/C [19]: 21.9%
viability, T/C [20]: 23.9%
viability, T/C [21]: 22.8%
viability, T/C [22]: 21.1%
viability, T/C [23]: 19.1%
viability, T/C [24]: 21.1%
viability, T/C [25]: 4.14%
viability, T/C [26]: 3.13%
viability, T/C [27]: 4.35%
viability, T/C [28]: 2.76%
viability, T/C [29]: 3.07%
viability, T/C [30]: 4.48%
viability, T/C [31]: 4.01%
viability, T/C [32]: 4.31%
viability, T/C [33]: 6.05%
viability, T/C [34]: 4.02%
viability, T/C [35]: 5.21%
viability, T/C [36]: 4.73%
viability, T/C [37]: 4.33%
viability, T/C [38]: 5.55%
viability, T/C [39]: 4.42%
viability, T/C [40]: 5.56%
viability, T/C [41]: 5.95%
viability, T/C [42]: 6.95%

IC50 (curve of compound): > 10000 nM and 9920 nM
SMILES: COc1ccc([C@@H](O)c2cc(-c3ncnc4cc(N5CCOCC5)ccc34)c(F)cc2Cl)nn1
viability, T/C (compound 0.0316 µM): 105% and 109%
viability, T/C (compound 0.1 µM): 116% and 106%
viability, T/C (compound 0.316 µM): 110% and 95.9%
viability, T/C (compound 1 µM): 92.8% and 92.9%
viability, T/C (compound 3.16 µM): 79.5% and 68.8%
viability, T/C (compound 10 µM): 50.6% and 50.3%

IC50 (curve of compound): 5610 nM and 5540 nM
SMILES: CC1(C)CCC(CN2CCN(c3ccc(C(=O)NS(=O)(=O)c4ccc(NCC5CCOCC5)c([N+](=O)[O-])c4)c(Oc4cnc5[nH]ccc5c4)c3)CC2)=C(c2ccc(Cl)cc2)C1
viability, T/C (compound 0.0316 µM): 97.7% and 104%
viability, T/C (compound 0.1 µM): 103% and 96.6%
viability, T/C (compound 0.316 µM): 103% and 100%
viability, T/C (compound 1 µM): 95.6% and 102%
viability, T/C (compound 3.16 µM): 93.1% and 89.5%
viability, T/C (compound 10 µM): 6.41% and 8.48%
